In US20240294541A1, “COMPOUNDS CONSTITUTING C20-MODIFIED SALINOMYCIN DERIVATIVES, A METHOD FOR OBTAINING THE SAME, A COMPOSITION CONTAINING THE SAME AND A USE OF SAID COMPOUNDS” (FILECLO SPOLKA Z OGRANICZONA ODPOWIEDZIALNOSCIA, priority 2021, published 2024):
Where two headings read alike, the source gives them in different places.

Key:
Assay type in all cases: cell-based
[1] = tested on: SNU-16 (human gastric cancer); assay: cells
[2] = tested on: MIA PaCa-2 (human pancreatic cancer); assay: cells
[3] = tested on: A2780 (human ovarian cancer); assay: In vitro cytotoxicity, SRB assay, A2780
[4] = tested on: Hs294T (human melanoma); assay: cells
[5] = tested on: PFSK-1 (malignant primitive neuroectodermal tumour); assay: In vitro cytotoxicity, SRB assay, PFSK-1
[6] = tested on: A375 (human melanoma); assay: In vitro cytotoxicity, SRB assay, A375
[7] = tested on: BALB/3T3 (normal mouse fibroblasts); assay: In vitro cytotoxicity, SRB assay, normal BALB/3T3 fibroblasts
[8] = tested on: KG-1 (human acute myeloid leukaemia); assay: In vitro cytotoxicity, MTT assay, KG-1
[9] = tested on: NCI-H23 (human lung cancer); assay: In vitro cytotoxicity, SRB assay, NCI-H23
[10] = tested on: A2780Cis (cisplatin-resistant human ovarian cancer); assay: In vitro cytotoxicity, SRB assay, A2780Cis; conditions: for IC50: Homo sapiens, A2780cis
[11] = tested on: cancer cells; assay: In vitro cytotoxic activity on the panel of cancer cell lines (MTT/SRB), general statements; conditions: for anti-proliferative effect compared to that of the parent compound: Tables 3.1, 3.2, 4 and 5, parent compound salinomycin
[12] = tested on: PLC/PRF/5 (human liver cancer); assay: cells
[13] = tested on: MV-4-11 (human biphenotypic leukaemia); assay: In vitro cytotoxicity, MTT assay, MV-4-11; conditions: for IC50: Homo sapiens, MV4-11, read-out: IC50 (nM) MV4-11
[14] = selectivity coefficient vs normal BALB/3T3 cells
[15] = Table 5, BALB/3T3 normal mouse fibroblasts, read-out: IC50 (nM) BALB3T3 normal cells

For `CC[C@@H](C(=O)[C@@H](C)[C@@H](O)[C@H](C)[C@@H]1O[C@@H]([C@@H](CC)C(=O)O)CC[C@@H]1C)[C@H]1O[C@]2(C=C[C@@H](NC(=O)Nc3ccccc3)[C@]3(CC[C@@](C)([C@H]4CC[C@](O)(CC)[C@H](C)O4)O3)O2)[C@H](C)C[C@@H]1C` [FLC-00374-1], which IC50 ([1]; Homo sapiens, SNU-16, 72 h with compound, MTT, n/a = non-active compound, read-out: SNU-16 IC50) is on record?
The IC50 was 4.03 nM.

And the “SNU-16 SI” value [1, 14]?
Its value is 17.5.

And the IC50 ([2]; Homo sapiens, MIA PaCa-2, 72 h with compound, SRB, n/a = non-active compound, read-out: MIA PaCa-2 IC50)?
The IC50 was 28.7 nM.

And the “MIA PaCa-2 SI” value [2, 14]?
The value was 2.5.

What about the IC50 ([3]; Homo sapiens, A2780, 72 h with compound, SRB, n/a = non-active compound, read-out: A2780 IC50) of the same compound?
Its IC50 is 0.45 nM.

And the “A2780 SI” value [3, 14]?
The value was 156.6.

What about the IC50 ([4]; Homo sapiens, Hs 294T, 72 h with compound, SRB, n/a = non-active compound, read-out: Hs294T IC50) of the same compound?
The IC50 was 73.1 nM.

And the “Hs294T SI” value [4, 14]?
Its value is 1.0.

What about the IC50 ([5]; Homo sapiens, PFSK-1, 72 h with compound, SRB, n/a = non-active compound, read-out: PFSK-1 IC50) of the same compound?
The IC50 was 3.83 nM.

What about the “PFSK-1 SI” value [5, 14] of the same compound?
Its value is 18.4.

What about the IC50 ([6]; Homo sapiens, A-375, 72 h with compound, SRB, n/a = non-active compound, read-out: A375 IC50) of the same compound?
The IC50 was 34.2 nM.

And the “A375 SI” value [6, 14]?
Its value is 2.1.

What about the IC50 ([7]; Mus musculus, BALB/3T3, normal cells, 72 h with compound, SRB, n/a = non-active compound, read-out: BALB/3T3 IC50) of the same compound?
The IC50 was 70.5 nM.

And the IC50 [7, 15]?
Its IC50 is 70.5 nM.

What about the IC50 ([8]; Homo sapiens, 72 h with compound, MTT, n/a = non-active compound) of the same compound?
Its IC50 is 12.5 nM.

And the “KG-1 SI” value [8, 14]?
Its value is 5.6.

And the IC50 ([9]; Homo sapiens, NCI-H23, 72 h with compound, SRB, n/a = non-active compound, read-out: NCI-H23 IC50)?
The IC50 was 2.92 nM.

And the “NCI-H23 SI” value [9, 14]?
Its value is 24.1.

And the “A2780Cis RI” value [10]?
Its value is 0.2.

What about the “A2780Cis SI” value [10] of the same compound?
The value was 671.0.

What about the “SI A2780Cis” value [10] of the same compound?
The value was 671.0.

And the IC50 ([10]; 72 h, read-out: A2780Cis IC50 (nM))?
Its IC50 is 0.11 nM.

And the IC50 ([10]; read-out: IC50 (nM) A2780Cis)?
Its IC50 is 0.11 nM.

And the “anti-proliferative effect compared to that of the parent compound” value [11]?
Its value is “several times more potent compared to that of the parent compound”.

What about the “biological properties (IC50, SI) compared to the corresponding epi compounds” value ([11]; table 5 comparative examples, retained vs inverted C20 configuration) of the same compound?
Its value is “improved biological properties compared to their counterparts with a configuration conversion”.

And the IC50 ([12]; Homo sapiens, PLC-PRF-5, 72 h with compound, SRB, n/a = non-active compound, read-out: PLC/PRF/5 IC50)?
The IC50 was 8.83 nM.

And the “PLC/PRF/5 SI” value [12, 14]?
The value was 8.0.

With `CC[C@@H](C(=O)[C@@H](C)[C@@H](O)[C@H](C)[C@@H]1O[C@@H]([C@@H](CC)C(=O)O)CC[C@@H]1C)[C@H]1O[C@]2(C=C[C@@H](NC(=S)NC(C)(C)C)[C@]3(CC[C@@](C)([C@H]4CC[C@](O)(CC)[C@H](C)O4)O3)O2)[C@H](C)C[C@@H]1C` [FLC-00467-1•Na] as the compound, how does the “SI MV4-11” value [13] read?
The value was “≈853700”.

And the IC50 [7, 15]?
The IC50 was 85.4 nM.

What about the “SI A2780Cis” value [10] of the same compound?
Its value is “≈853700”.

And the “anti-proliferative effect compared to that of the parent compound” value [11]?
Its value is “several times more potent compared to that of the parent compound”.

What does the source list for `CC[C@@H](C(=O)[C@@H](C)[C@@H](O)[C@H](C)[C@@H]1O[C@@H]([C@@H](CC)C(=O)O)CC[C@@H]1C)[C@H]1O[C@]2(C=C[C@@H](NC(=O)N[C@@H](C)C(C)(C)C)[C@]3(CC[C@@](C)([C@H]4CC[C@](O)(CC)[C@H](C)O4)O3)O2)[C@H](C)C[C@@H]1C` [FLC-00606-1•Na]?
SI MV4-11 [13]: ≈5240; IC50 [13]: < 0.01 nM; IC50 [7, 15]: 52.4 nM; SI A2780Cis [10]: ≈5240; IC50 ([10]; read-out: IC50 (nM) A2780Cis): < 0.01 nM; anti-proliferative effect compared to that of the parent compound [11]: several times more potent compared to that of the parent compound

Which results are given for `CCC(CC)NC(=S)N[C@@H]1C=C[C@]2(O[C@H]([C@@H](CC)C(=O)[C@@H](C)[C@@H](O)[C@H](C)[C@@H]3O[C@@H]([C@@H](CC)C(=O)O)CC[C@@H]3C)[C@@H](C)C[C@H]2C)O[C@@]12CC[C@@](C)([C@H]1CC[C@](O)(CC)[C@H](C)O1)O2` [FLC-00771-1•Na]?
SI MV4-11 [13]: ≈8000; IC50 [13]: < 0.01 nM; IC50 [7, 15]: 80 nM; SI A2780Cis [10]: ≈8000; IC50 ([10]; read-out: IC50 (nM) A2780Cis): < 0.01 nM; anti-proliferative effect compared to that of the parent compound [11]: several times more potent compared to that of the parent compound

Which “SI MV4-11” value [13] does the source give for `CC[C@@H](C(=O)[C@@H](C)[C@@H](O)[C@H](C)[C@@H]1O[C@@H]([C@@H](CC)C(=O)O)CC[C@@H]1C)[C@H]1O[C@]2(C=C[C@@H](NC(=O)C(C)(C)CCl)[C@]3(CC[C@@](C)([C@H]4CC[C@](O)(CC)[C@H](C)O4)O3)O2)[C@H](C)C[C@@H]1C` [FLC-00473-1•Na] here?
Its value is 62.7.

What about the IC50 [13] of the same compound?
The IC50 was 2.05 nM.

What about the IC50 [7, 15] of the same compound?
Its IC50 is 129 nM.

And the “SI A2780Cis” value [10]?
Its value is 179.1.

And the IC50 ([10]; read-out: IC50 (nM) A2780Cis)?
Its IC50 is 0.72 nM.

And the “anti-proliferative effect compared to that of the parent compound” value [11]?
The value was “several times more potent compared to that of the parent compound”.

Which “SI MV4-11” value [13] does the source give for `CC[C@@H](C(=O)[C@@H](C)[C@@H](O)[C@H](C)[C@@H]1O[C@@H]([C@@H](CC)C(=O)O)CC[C@@H]1C)[C@H]1O[C@]2(C=C[C@@H](NC(=O)NC(C)(C)C)[C@]3(CC[C@@](C)([C@H]4CC[C@](O)(CC)[C@H](C)O4)O3)O2)[C@H](C)C[C@@H]1C` [FLC-00593-1•Na] here?
The value was “≈7220”.

And the IC50 [13]?
The IC50 was < 0.01 nM.

And the IC50 [7, 15]?
Its IC50 is 72.2 nM.

What about the “SI A2780Cis” value [10] of the same compound?
Its value is “≈7220”.

What about the IC50 ([10]; read-out: IC50 (nM) A2780Cis) of the same compound?
The IC50 was < 0.01 nM.

And the “anti-proliferative effect compared to that of the parent compound” value [11]?
Its value is “several times more potent compared to that of the parent compound”.
